Our source for the Km, IC50 and Hill slope values is paper PMC2808025 (Current Chemical Genomics, 2009).

As a reminder, the Km is the substrate concentration at which the rate is half of its maximum. Usually Hill slope stands for a measure of the steepness of the concentration-response curve. The term pIC50 denotes the negative decadic logarithm of the IC50, by convention in mol/L.

pIC50: −log10 of the molar value. Several values for one entry are separate records, joined by “and”; a condition that tells them apart may be missing. Identical values can stand only once. Like-named read-outs stand apart in the source and are kept apart here.

For one experiment, the target named is T1, human PAP (Homo sapiens, UniProt P15309).
T1 sequence (P15309 33-386): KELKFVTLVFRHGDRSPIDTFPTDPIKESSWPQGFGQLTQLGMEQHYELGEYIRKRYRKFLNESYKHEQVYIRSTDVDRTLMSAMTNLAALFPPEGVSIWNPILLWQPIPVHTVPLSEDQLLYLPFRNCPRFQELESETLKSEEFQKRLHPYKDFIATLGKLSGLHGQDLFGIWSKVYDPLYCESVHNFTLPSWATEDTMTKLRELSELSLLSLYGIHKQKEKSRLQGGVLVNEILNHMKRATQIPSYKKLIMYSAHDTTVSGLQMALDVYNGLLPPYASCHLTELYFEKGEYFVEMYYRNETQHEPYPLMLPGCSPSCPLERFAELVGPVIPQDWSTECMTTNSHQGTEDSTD
Type of experiment: biochemical.

For a further experiment, the system named is PAP. Particulars: cited from earlier work.

Regarding `Cc1cc(=O)oc2c(F)c(OP(=O)(O)O)c(F)cc12` [DiFMUP, difluoro-4-methylumbelliferyl phosphate], the Km on human PAP was 918 µM.
As to `O=P(O)(O)C(NCc1ccccc1)c1ccccc1` (stereo not drawn) [BABPA, α-benzylaminobenzylphosphonic acid], in the experiment with PAP (known PAP inhibitor), the IC50 result is on record as “nanomolar range”.
Take `O=C([O-])[C@H](O)[C@@H](O)C(=O)[O-].[Na+].[Na+]` [sodium L-(+)-tartrate]: the Hill slope on human PAP is 0.96 and 0.89. Also, the pIC50 at human PAP is 4.28 and 4.40; in the experiment with PAP (read-out: published IC50), 4.54.
